PubChem BioAssay (NCI)
“And” between values parts separate entries of the source, which are not always exact repeats. Equal entries are not always repeated.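 96-well plates; 48 h exposure; 5 concentrations. Endpoints by linear interpolation between flanking doses. Not reached: highest tested concentration assigned. At the GI50, growth is halved. TGI: concentration producing complete growth inhibition.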

Columns and labels:
Experiment in all cases: NCI tumour cell line growth inhibition, 48 h
OVCAR-8 ovarian = system: OVCAR-8 ovarian
UO-31 renal = system: UO-31 renal
HOP-62 NSCLC = system: HOP-62 NSCLC
ACHN renal = system: ACHN renal
SK-MEL-5 melanoma = system: SK-MEL-5 melanoma
HCT-116 colon = system: HCT-116 colon
SN12C renal = system: SN12C renal
DU-145 prostate = system: DU-145 prostate
NCI-H522 lung = system: NCI-H522 lung
OVCAR-3 ovarian = system: OVCAR-3 ovarian
SF-539 CNS = system: SF-539 CNS
PC-3 prostate = system: PC-3 prostate
CAKI-1 renal = system: CAKI-1 renal
RXF 393 renal = system: RXF 393 renal
A549 NSCLC = system: A549 NSCLC
NCI/ADR-RES ovarian = system: NCI/ADR-RES ovarian
UACC-62 melanoma = system: UACC-62 melanoma
TK-10 renal = system: TK-10 renal
MDA-MB-231 breast = system: MDA-MB-231 breast
NCI-H460 lung = system: NCI-H460 lung
NCI-H23 lung = system: NCI-H23 lung
MDA-MB-435 = system: MDA-MB-435
BT-549 breast = system: BT-549 breast
CCRF-CEM leukemia = system: CCRF-CEM leukemia
SK-MEL-28 melanoma = system: SK-MEL-28 melanoma
786-0 renal = system: 786-0 renal
HCT-15 colon = system: HCT-15 colon

## CCN(CC)CCNc1ccc(C)c2sc3ccccc3c(=O)c12 (tested in a mixture with another compound)
OVCAR-8 ovarian
  GI50: 6.63 µM
  TGI: 76.9 µM
UO-31 renal
  TGI: 3.79 µM
HOP-62 NSCLC
  GI50: 1.54 µM and 2.07 µM
  TGI: 3.12 µM and 5.88 µM
ACHN renal
  GI50: 2.34 µM and 2.2 µM
  TGI: 5.47 µM and 5.97 µM
SK-MEL-5 melanoma
  GI50: 1.54 µM and 1.69 µM
  TGI: 2.98 µM and 3.09 µM
HCT-116 colon
  GI50: 1.5 µM
  TGI: 2.9 µM and 3.62 µM
SN12C renal
  GI50: 4.38 µM
  TGI: 12.7 µM and 18 µM
DU-145 prostate
  GI50: 2.58 µM and 3.08 µM
  TGI: 9.14 µM and 8.92 µM
NCI-H522 lung
  GI50: 3.34 µM
  TGI: 13.3 µM
OVCAR-3 ovarian
  GI50: 2.43 µM
  TGI: 6.92 µM and 7.23 µM
SF-539 CNS
  GI50: 1.92 µM and 2.25 µM
  TGI: 4.06 µM and 5.45 µM
PC-3 prostate
  GI50: 2.77 µM
  TGI: 6.63 µM and 12.4 µM
CAKI-1 renal
  GI50: 1.38 µM and 0.694 µM
  TGI: 4.5 µM and 6.47 µM
RXF 393 renal
  TGI: 5.16 µM
A549 NSCLC
  GI50: 1.63 µM
  TGI: 3.24 µM and 8.53 µM
NCI/ADR-RES ovarian
  GI50: 3.21 µM and 3.19 µM
  TGI: 12.2 µM and 13.5 µM
UACC-62 melanoma
  GI50: 1.08 µM
  TGI: 2.49 µM and 3.79 µM
TK-10 renal
  GI50: 2.73 µM
  TGI: 5.64 µM and 12.2 µM
MDA-MB-231 breast
  GI50: 1.72 µM and 1.83 µM
  TGI: 3.56 µM and 3.98 µM
NCI-H460 lung
  TGI: 3.81 µM and 3.58 µM
NCI-H23 lung
  GI50: 2.32 µM
  TGI: 6.01 µM and 11.4 µM
MDA-MB-435
  TGI: 4.13 µM and 4.21 µM
BT-549 breast
  GI50: 6.4 µM
  TGI: 16.3 µM and 21.4 µM
CCRF-CEM leukemia
  GI50: 2.84 µM and 3.05 µM
  TGI: 8.82 µM and 10.6 µM
SK-MEL-28 melanoma
  TGI: 3.3 µM and 3.27 µM
786-0 renal
  GI50: 1.79 µM
  TGI: 4.83 µM and 11.4 µM
HCT-15 colon
  TGI: 11.1 µM and 9.1 µM
